Results from patent US6566348B1, “Pesticides based on cyclic polysiloxanes” (Bayer Aktiengesellschaft, priority 1995, dated 2003).

Assay: Crystallizing out at low temperatures
Assay type: physicochemical

## C[Si]1(C)O[Si](C)(C)O[Si](C)(C)O[Si](C)(C)O[Si](C)(C)O1 [Decamethylcyclopentasiloxane, decamethylcyclopentasiloxane]
  stability at low temperatures: stable at low temperatures, without crystallizing out
